These results are taken from ChEMBL document CHEMBL2046380, “Synthesis and structure-activity relationship of disubstituted benzamides as a novel class of antimalarial agents” (Bioorg Med Chem Lett, 2012).

The test system of assay [1] is Plasmodium falciparum. Put plainly: Antimalarial activity against […] incubated for 72 hrs by DNA staining based MARK1 growth inhibition assay. Format: functional, organism-based.
The test system of the next assay is BJ. Put plainly: Cytotoxicity against human BJ cells after 72 hrs by […] CellTiterGlo reagent assay. It is filed as cell-based.
A further assay concerns Raji. Description: Cytotoxicity against human Raji cells after 72 hrs by […] CellTiterGlo reagent assay. It is filed as cell-based.
For a further assay, the system named is HepG2. Put plainly: Cytotoxicity against human HepG2 cells after 72 hrs by […] CellTiterGlo reagent assay. Conditions: HepG2, 72 h. It is filed as cell-based.
The subject of the next assay is HEK293. Put plainly: Cytotoxicity against human HEK293 cells after 72 hrs by […] CellTiterGlo reagent assay. Format: cell-based. The following applies: HEK293, 72 h.
In assay [2] the test system is Plasmodium falciparum. Description: Antimalarial activity against chloroquine-sensitive Plasmodium falciparum 3D7 incubated for 72 hrs by DNA staining based MAR3D7 growth inhibition assay. Conditions: 3D7, 72 h. Format: functional, organism-based.

As for `CC(C)N(Cc1cccc(OCCCCCC(=O)O)c1)C(=O)c1ccc(-c2cccc(-c3ccccc3)c2)cc1`, the EC50 in the assay with Plasmodium falciparum [1] is > 15 µM; in the assay on BJ it was > 26 µM; in the assay on Raji it was > 26 µM; with HepG2, > 26 µM; in the assay with HEK293, > 26 µM; in the assay with Plasmodium falciparum [2] it was > 15 µM.

With `CCOC(=O)CC(=O)NCCc1ccc(OC)c(OC)c1`, the EC50 in the assay with Plasmodium falciparum [1] is > 7.51 µM; in the assay on BJ it was > 13 µM; in the assay on Raji it was > 13 µM; with HepG2, > 13 µM; with HEK293 it was > 13 µM; in the assay on Plasmodium falciparum [2], > 7.51 µM.

Take `CCOC(=O)CCCCCOc1cccc(CN(C(=O)c2ccc(-c3ccsc3)cc2)C(C)C)c1`: the EC50 in the assay on Plasmodium falciparum [1] is > 15 µM; in the assay on BJ, > 26 µM; in the assay with Raji, > 26 µM; in the assay with HepG2, > 26 µM; with HEK293 it was > 26 µM; in the assay with Plasmodium falciparum [2], > 15 µM.

Consider `CCOC(=O)CCCCCOc1cccc(CN(C(=O)c2ccc(-c3cccc(C(C)=O)c3)cc2)C(C)C)c1`, for which the EC50 is > 15 µM in the assay on Plasmodium falciparum [1]; > 26 µM in the assay on BJ; > 26 µM in the assay on Raji; > 26 µM with HepG2; > 26 µM with HEK293; > 1.5 µM in the assay on Plasmodium falciparum [2].

With `CCOC(=O)CCCCCOc1cccc(CN(C(=O)c2ccc(-c3ccoc3)cc2)C(C)C)c1`, the EC50 with Plasmodium falciparum [1] is > 15 µM; with BJ, > 26 µM; in the assay with Raji, > 26 µM; in the assay on HepG2, > 26 µM; with HEK293, > 26 µM; in the assay on Plasmodium falciparum [2] it was > 15 µM.

As to `CC(C)N(Cc1cccc(OCCCCCC(=O)O)c1)C(=O)c1ccc(-c2cccc(Br)c2)cc1`, the EC50 with Plasmodium falciparum [1] is > 15 µM; in the assay with BJ, > 26 µM; in the assay with Raji, > 26 µM; in the assay on HepG2, > 26 µM; in the assay on HEK293, > 26 µM; with Plasmodium falciparum [2], > 15 µM.

As for `COc1cc(C)ccc1OCCOc1ccccc1F`, the EC50 in the assay with Plasmodium falciparum [1] is > 15 µM; with BJ it was > 26 µM; in the assay on Raji it was > 26 µM; with HepG2, > 26 µM; with HEK293, > 26 µM; with Plasmodium falciparum [2], > 15 µM.

Consider `COc1ccc(-c2cc(C(=O)O)c3ccccc3n2)cc1OC`, for which the EC50 in the assay on Plasmodium falciparum [1] is > 15 µM; with BJ, > 26 µM; in the assay with Raji, > 26 µM; in the assay with HepG2 it was > 26 µM; in the assay with HEK293 it was > 26 µM; in the assay on Plasmodium falciparum [2] it was > 15 µM.

In the case of `CCOC(=O)CCCCCOc1cccc(CN(C(=O)c2ccc(-c3ccco3)cc2)C(C)C)c1`, the EC50 with Plasmodium falciparum [1] is > 15 µM; with BJ, > 26 µM; in the assay on Raji it was > 26 µM; in the assay with HepG2 it was > 26 µM; with HEK293 it was > 26 µM; with Plasmodium falciparum [2] it was > 15 µM.

Take `CC(C)N(Cc1ccc(OCCCCCC(=O)O)cc1)C(=O)c1ccc(-c2ccc3c(c2)OCO3)cc1`: the EC50 in the assay with Plasmodium falciparum [1] was 1.82 µM; in the assay on BJ, > 26 µM; with Raji, > 26 µM; in the assay with HepG2, > 26 µM; in the assay with HEK293, > 26 µM; with Plasmodium falciparum [2], > 15 µM.

Consider `CCCN(Cc1ccc(OCCCCCC(=O)OCC)cc1)C(=O)c1ccc(Br)cc1`, for which the EC50 with Plasmodium falciparum [1] is > 15 µM; in the assay with BJ it was > 26 µM; with Raji it was > 26 µM; in the assay with HepG2 it was > 26 µM; in the assay with HEK293 it was > 26 µM; with Plasmodium falciparum [2], > 15 µM.

As to `CCOC(=O)CCCCCOc1cccc(CN(C(=O)c2ccc(-c3cc(F)cc(OC)c3)cc2)C(C)C)c1`, the EC50 in the assay on Plasmodium falciparum [1] is > 15 µM; with BJ, > 26 µM; in the assay on Raji, > 26 µM; in the assay with HepG2, > 26 µM; in the assay with HEK293, > 26 µM; in the assay with Plasmodium falciparum [2], > 15 µM.

For the molecule `CCOC(=O)CCCCCOc1cccc(CN(C(=O)c2ccc(-c3cccc(NC(C)=O)c3)cc2)C(C)C)c1`, the EC50 is > 15 µM in the assay on Plasmodium falciparum [1]; > 26 µM in the assay with BJ; > 26 µM with Raji; > 26 µM with HepG2; > 26 µM in the assay with HEK293; > 15 µM with Plasmodium falciparum [2].

Regarding `CCOC(=O)CCCCCOc1cccc(CN(C(=O)c2ccc(-c3ccc(Cl)c(Cl)c3)cc2)C(C)C)c1`, the EC50 with Plasmodium falciparum [1] is > 15 µM; with BJ, > 26 µM; with Raji, > 26 µM; in the assay on HepG2, > 26 µM; in the assay on HEK293, > 26 µM; with Plasmodium falciparum [2], > 15 µM.

Take `CC(C)N(Cc1cccc(OCCCCCC(=O)O)c1)C(=O)c1ccc(-c2ccc3cc[nH]c3c2)cc1`: the EC50 in the assay with Plasmodium falciparum [1] is > 1.5 µM; with BJ it was > 26 µM; with Raji, > 26 µM; in the assay on HepG2, > 26 µM; with HEK293, > 26 µM; in the assay with Plasmodium falciparum [2], > 15 µM.

Regarding `CCOC(=O)CCCCCOc1cccc(CN(C(=O)c2ccc(-c3cc(C(F)(F)F)cc(C(F)(F)F)c3)cc2)C(C)C)c1`, the EC50 in the assay with Plasmodium falciparum [1] is > 15 µM; with BJ, > 26 µM; in the assay with Raji, > 26 µM; in the assay on HepG2, > 26 µM; in the assay on HEK293, > 26 µM; in the assay with Plasmodium falciparum [2], > 15 µM.

Take `CCCN(Cc1ccc(OCCCCCC(=O)O)cc1)C(=O)c1ccc(-c2ccc3c(c2)OCO3)cc1`: the EC50 is 0.928 µM with Plasmodium falciparum [1]; > 26 µM in the assay on BJ; > 26 µM with Raji; > 26 µM with HepG2; > 26 µM in the assay with HEK293; > 15 µM in the assay on Plasmodium falciparum [2].

Consider `C=CCCC1=NCCc2cc(OC)c(OC)cc21`, for which the EC50 in the assay on Plasmodium falciparum [1] was > 7.51 µM; in the assay on BJ, > 13 µM; in the assay with Raji, > 13 µM; in the assay on HepG2, > 13 µM; in the assay on HEK293 it was > 13 µM; in the assay with Plasmodium falciparum [2] it was > 7.51 µM.

In the case of `CCOC(=O)CCCCCOc1cccc(CN(C(=O)c2ccc(-c3ccncc3)cc2)C(C)C)c1`, the EC50 is 0.0008 µM in the assay on Plasmodium falciparum [1]; > 26 µM with BJ; > 26 µM with Raji; > 26 µM in the assay on HepG2; > 26 µM in the assay on HEK293; < 0.0008 µM in the assay with Plasmodium falciparum [2].

As to `CCCN(Cc1ccc(OCCCCCC(=O)OCC)cc1)C(=O)c1ccc(-c2ccc3c(c2)OCO3)cc1`, the EC50 is > 15 µM in the assay with Plasmodium falciparum [1]; > 26 µM in the assay on BJ; > 26 µM with Raji; > 26 µM in the assay on HepG2; > 26 µM in the assay with HEK293; > 15 µM with Plasmodium falciparum [2].

`CC(C)N(Cc1cccc(OCCCCCC(=O)O)c1)C(=O)c1ccc(-c2c[nH]c3ccccc23)cc1`: the EC50 in the assay with Plasmodium falciparum [1] was > 15 µM; in the assay with BJ, > 26 µM; in the assay on Raji, > 26 µM; with HepG2, > 26 µM; with HEK293, > 26 µM; in the assay on Plasmodium falciparum [2] it was > 15 µM.

For the molecule `CCOC(OCC)C(=O)NCCc1ccc(OC)c(OC)c1`, the EC50 is > 7.51 µM in the assay on Plasmodium falciparum [1]; > 13 µM with BJ; > 13 µM in the assay with Raji; > 13 µM with HepG2; > 13 µM in the assay with HEK293; > 7.51 µM in the assay with Plasmodium falciparum [2].

Take `CCOC(=O)CCCCCOc1cccc(CN(C(=O)c2ccc(-c3cccc(-c4ccccc4)c3)cc2)C(C)C)c1`: the EC50 was > 15 µM with Plasmodium falciparum [1]; > 26 µM in the assay on BJ; > 26 µM with Raji; > 26 µM with HepG2; > 26 µM in the assay on HEK293; > 15 µM in the assay with Plasmodium falciparum [2].
